Results on three compounds are retold here after patent publication US9895357B2, “Compositions, methods and kits for reducing lipid levels” (NuSirt Sciences, Inc., priority 2013, dated 2018).

Each structure is given as a SMILES string. Some results are limits rather than exact numbers.

The test system of series [1] is LDL receptor knockout (LDLRKO) mice. Description: Example 7: plasma total cholesterol, cholesterol esters and triglycerides in LDLRKO mice on western diet. Type of series: in vivo. To be noted: four weeks. Here is the method:
(§1) The mice were provided free access to an atherogenic western diet (WD) containing 0.21% cholesterol (by weight) and 40% calories from fat and water for 4 weeks prior to treatment. […] The treatments were administered for eight weeks continuously.
Blood samples of the mice in all groups were obtained from tails of the mice at following four and eight weeks of administration. The serum/plasma levels of triglyceride, total cholesterol and cholesterol esters were measured. Following treatment, food was removed for four hours and the animals were euthanized.
Blood was collected into EDTA-coated tubes to analyze plasma lipid and cholesterol profiles. Plasma total cholesterol (TC, Pointe Scientific, Canton, Mich.), free cholesterol (FC, Wako, Richmond, Va.) and triglyceride (TG, Wako, Richmond, Va.) concentrations were measured using enzymatic assays according to manufacturer's instructions. Cholesterol ester (CE) was calculated as the difference between TC and FC.

The test system is the same in series [2]. In words: Example 7: atherosclerotic lesion area and Oil Red O positive area in LDLRKO mice. Type of series: in vivo. To be noted: eight weeks. Here is the method:
as §1
To assess atherosclerosis, the circulatory system was perfused following euthanasia with phosphate-buffered saline (PBS) before removing the heart and aorta. The upper one-third of the heart was dissected and embedded in Optimal Cutting Temperature Compound (Sakura Tissue-Tek, Torrance, Calif.), frozen, and stored at −80° C. Blocks were serially cut at 8 μm intervals and stained with hematoxylin and 0.5% Oil Red O (Sigma-Aldrich) to evaluate aortic sinus atherosclerotic intimal area. Atherosclerotic lesion area and Oil Red O positive area were quantified using Image-Pro Plus software (Media Cybemetics, Bethesda, Md.). Whole aorta (from sinotubular junction to iliac bifurcate) was dissected and fixed in 10% formalin, and the adventitia was cleaned. Aortas were opened along the longitudinal axis and pinned onto black silicon elastomer (Rubber-Cal, Santa Ana, Calif.) for the quantification of atherosclerotic lesion area. The percentage of total aortic surface covered with atherosclerotic lesions was quantified by Image-Pro Plus software (Media Cybemetics, Bethesda, Md.) and used to determine the total lesion area.

The subject of the next series is C. elegans. In words: Lifespan in C. elegans. Type of series: in vivo, Caenorhabditis elegans. To be noted: leucine 0.5 mM, nicotinic acid 10 nM; basal conditions. Here is the method:
Eggs were hatched on a starved plate overnight. […] To study lifespan, 50 young adult worms were placed on NGM agar plates seeded with E. coli strain OP-50 (=day 1 of study). All treatments were added with the indicated concentrations to E. coli the agar plates. […] The worms were maintained at 20° C. throughout the duration of the study. Worms were transferred to new plates daily to eliminate progeny. […] The study was continued until the last animal was dead. Data were analyzed via Kaplan-Meier survival curves using Prism 6 (GraphPad Software) and statistical significance was determined by the Log-rank (Mantel-Cox) test.

For series [3], the system named is LDL receptor knockout (LDLRKO) mice. Description: Example 7: aortic macrophage infiltration (CD68 positive area) in LDLRKO mice. To be noted: eight weeks. Type of series: in vivo. Here is the method: as §1
To assess macrophage infiltration, Sections of aortic sinus were immuno-stained with rat monoclonal antibody against macrophage-specific CD68 (Clone FA11, 1:75, AbD Serotec, Raleigh, N.C.) followed by staining with alkaline phosphatase-conjugated mouse anti-rat (for CD68, 1:50) secondary antibodies (Jackson ImmunoResearch laboratories, West Grove, Pa.). Control slides contain no primary antibody. The CD68-positive areas were analyzed using Image-Pro Plus software (Media Cybemetics, Bethesda, Md.).

The test system of series [4] is Sirt1. To be noted: 0.5 mM for leucine and 5 μM for HMB; previously shown; cited from earlier work.
The test system of series [5] is AMPK. To be noted: 0.5 mM for leucine and 5 μM for HMB; previously shown; cited from earlier work.
Series [6] concerns Patients pre-diagnosed with hyperlipidemia. To be noted: NA alone 3000 mg = group (e); NA 50 mg + Leu 1135 mg; groups (a)-(d) as. How it is done: Patients that are pre-diagnosed with hyperlipidemia are admitted for the randomized and double blind study. […] The treatments are administered orally twice a day, for 60 days continuously.
Blood samples of the patients in all groups are obtained from at day 0, 30 and 60 after the administration. The serum/plasma levels of triglyceride, cholesterol, LDL and HDL are measured. Cutaneous vasodilation is measured by laser-Doppler flowmeter and the discomfort level described by the patients.

For series [7] the following is noted: oral dosing of about 3,000 mg; cited from earlier work.
For series [8], the system named is LDL receptor knockout (LDLRKO) mice. To be noted: NA alone 10 g/kg diet = group (e); NA 250 mg + Leu 24 g/kg diet; groups (a)-(d) as. Here is the method:
All chemicals are purchased from Sigma.
The serum/plasma levels of triglyceride, cholesterol, LDL and HDL are measured. Cutaneous vasodilation is measured by laser-Doppler flowmeter.

The test system of series [9] is AMPK. How it is done:
3T3-L1 preadipocytes (American Type Culture Collection) were plated at a density of 8000 cells/cm2 (10 cm2 dish) and grown in Dulbecco's modified eagle's medium (DMEM) containing 10% fetal bovine serum (FBS), and antibiotics (growth medium) at 37° C. in 5% CO2. […] Preadipocytes were maintained in this differentiation medium for 3 days and subsequently cultured in growth medium. Cultures were re-fed every 2-3 days to allow >90% cells to reach fully differentiation before conducting chemical treatment.
Western blotting was performed with antibodies against AMPK and Phospho-AMPKα (Thr172) obtained from Cell Signaling (Danvers, Mass.). […] Total 30 μg of protein from the cell lysate was resolved on 10% Tris/HCL polyacrylamide gels (Criterion precast gel, Bio-Rad Laboratories, Hercules, Calif.), transferred to PVDF membranes, incubated in blocking buffer (3% BSA in TBS), incubated with primary antibody (P-AMPK), washed and incubated with secondary horseradish peroxidase-conjugated antibody.

Series [10] deals with Sirt1. Here is the method:
C2C12 mouse myoblasts (American Type Culture Collection) were plated at a density of 8000 cells/cm^2 (10 cm^2 dish) and grown in Dulbecco's modified eagle's medium (DMEM) containing 10% fetal bovine serum (FBS), and antibiotics (growth medium) at 37° C. in 5% CO2. For differentiation of C2C12 cells, cells were grown to 100% confluence, transferred to differentiation medium (DMEM with 2% horse serum and 1% penicillin-streptomycin), and fed with fresh differentiation medium every day until myotubes were fully formed (3 days).
Total 35 μg of protein from the cell lysate was resolved on 10% Tris/HCL polyacrylamide gels (Criterion precast gel, Bio-Rad Laboratories, Hercules, Calif.), transferred to PVDF membranes, incubated in blocking buffer (3% BSA in TBS), incubated with primary antibody, washed and incubated with secondary horseradish peroxidase-conjugated antibody.

The mark [11] stands for this setting: leucine 24 g/kg diet alone, or with nicotinic acid 50 or 250 mg/kg diet, compared with NA 1,000 mg/kg diet.
The mark [12] stands for this setting: leucine 24 g/kg diet alone, or with nicotinic acid 50 mg/kg diet, compared with NA 1,000 mg/kg diet.

On to `CC(C)C[C@H](N)C(=O)O` [leucine], for which, in series [1] (setting [11]), the “effect on plasma cholesterol esters” value is “no independent effect” and the “effect on plasma total cholesterol” value is listed as “no independent effect”. Also, in series [2] (setting [12]), the “effect on lesion (plaque) area” value is given as “exerted an independent effect on plaque area”. The effect on lifespan result in the series on C. elegans is “no independent effect”. Moreover, the “effect on aortic macrophage infiltration” value in series [3] (setting [12]) is “significant independent effect on reducing macrophage infiltration”. In addition, the “therapeutic effect on these variables when administered alone” value with Sirt1 [4] was “no therapeutic effect”. Besides, the “therapeutic effect on these variables when administered alone” value in the series with AMPK [5] is listed as “no therapeutic effect”.

Regarding `O=C(O)c1cccnc1` [nicotinic acid], in [6], the “cutaneous vasodilation and patient complaints” value was “significant higher cutaneous vasodilation and more complaints from the patients”. For the same compound, the “circulating level of nicotinic acid or nicotinamide riboside” value in series [7] is “about 10 μM”. In addition, the cutaneous vasodilation entry in [8] is on record as “significant higher cutaneous vasodilation”. The “decrease in plasma total cholesterol” value in series [1] (nicotinic acid 1,000 mg/kg diet added to western diet, p<0.01) turned out to be 20%. Also, the “decrease in plasma cholesterol esters” value in [1] (nicotinic acid 1,000 mg/kg diet, CE calculated as TC minus FC, p<0.002) is on record as 28%. Besides, in series [1] (nicotinic acid 1,000 mg/kg diet, p<0.01), the “decrease in plasma triglycerides” value worked out at 32%. Also, the “decrease in atherosclerotic lesion size” value in [2] (nicotinic acid 1,000 mg/kg diet, relative to western diet alone) is given as around 50%. Moreover, the effect on lifespan entry with C. elegans was “no independent effect”. Further, the “decrease in aortic macrophage infiltration” value in [3] (nicotinic acid 1,000 mg/kg diet, % CD68 positive area) is around 50%. The “AMPK activation (P-AMPK/AMPK)” value in the series with AMPK [9] (differentiated 3T3-L1 adipocytes, 24 hours, nicotinic acid 10 nM, leucine 0.5 mM, resveratrol 200 nM) is reported as “no significant effect”. For the same compound, the “concentrations of nicotinic acid alone found to exert no effect” value was below 100 nM in the series with AMPK [9] (dose-response study, 3T3-L1 cells) and below 100 nM in the series on Sirt1 [10] (dose-response study, C2C12 cells). Moreover, the “effect on Sirt1 levels” value with Sirt1 [10] (C2C12 myotubes, 24 hours, nicotinic acid 10 nM alone or with 0.5 mM leucine) is listed as “did not have a significant effect”.

As for `NC(=O)c1ccc[n+]([C@@H]2O[C@H](CO)[C@@H](O)[C@H]2O)c1` [nicotinamide riboside], the “circulating level of nicotinic acid or nicotinamide riboside” value in series [7] is on record as “about 10 μM”.
